Test results as given in patent US20250171404A1, “PCNA INHIBITORS AND USES THEREOF” (CITY OF HOPE, priority 2022, published 2025).

Experiments:
[1] = Oral pharmacokinetic study in dogs; assay type: in vivo, beagle dogs
Procedure: FIGS. 4A-4H. Pharmacokinetics and anti-tumor growth activity of AOH1996 in vivo. FIG. 4A: After oral administration, the plasma concentrations of AOH1996 from three male and three female ES1^e/SCID mice at the indicated time points were averaged and graphed ±S.D. The inset contains PK parameters determined by a standard noncompartmental method. FIG. 4B: A similar PK study of AOH1996 was performed in dogs. FIGS. 4C-4E: Mice bearing the xenograft tumors of neuroblastoma (FIG. 4C: SK-N-BE(2)c), breast cancer (FIG. 4D: MDA-MB-468), and small-cell lung cancer (FIG. 4E: H82) were given vehicle only (black) or 40 mg/kg of AOH1996 (grey) twice daily immediately after the first measurement. Tumor sizes were measured by a dial caliper each week. […] FIG. 4F: Animal body weight was monitored throughout the studies as an indicator of toxicity. […] FIG. 4G: The levels of phosphor-Chk1 (pChk1) and γH2A.X in SK-N-BE(2)c derived tumor samples were analyzed by IHC. […] The p values determined by the Log-rank (Mantel-Cox) test between combination treatment and each of the control groups are p=0.0003 (Combination vs. NoRx), p=0.005 (Combination vs. AOH1996 alone), and p=0.024 (Combination vs. CPT-11 alone).
Pharmacokinetic (PK) study in animals. […] Following removal of blood cells, plasma concentration of AOH1996 was determined by LC-MS/MS as described (Gu et al., 2018). […]

[2] = system: PCNA and MCM7 on chromatin, MDA-MB-468 cells; test: Cell fractionation, chromatin-bound PCNA and MCM7; assay type: cell-based, human; settings: 5, 50, or 500 nM, 24 h
Procedure: FIGS. 7A-7E. Transcription dependent effect on DNA replication and damage. FIG. 7A: Left: Schematic of the cell fractionation procedure. Right: MDA-MB-468 cells were treated by increasing concentrations of AOH1996 (5, 50, or 500 nM) for 24 h. Cells treated with DMSO were used as control. Whole cell extract (WCE) and protein fractions associated with actively transcribed chromatin (CB:RNA+) or with low or non-transcribed chromatin (CB:RNA−) were analyzed by Western blot using antibodies against PCNA, CAF-1, and MCM7. FIG. 7B: Synchronized cancer cells were sequentially incubated in the presence of CldU (light grey) and IdU (dark grey) before and after AOH1996 treatment, respectively. […] Middle and Right: Lengths of CldU (light grey) and IdU (dark grey) incorporated DNA segments measured for more than 30 independent DNA strands from the indicated cancer cell type were averaged and graphed ±S.D. FIG. 7C: Whole cell lysates were extracted from SK-N-AS cells homozygous of the wildtype RPB1 allele or the APIM-mutant allele. Histone H2A.X and γH2A.X was analyzed by Western blot after treatment with or without AOH1996 overnight. FIG. 7D: Histone H2A.X and γH2A.X in whole cell lysates from SK-N-AS cells were analyzed by Western blot after treatment with 500 nM AOH1996 and/or 50 μM DRB overnight. […]

In the case of COc1cccc(Oc2ccccc2NC(=O)CNC(=O)c2cccc3ccccc23)c1 [AOH1996, N-(2-((2-(3-methoxyphenoxy)phenyl)amino)-2-oxoethyl)-1-naphthamide], the “PK parameters in dogs” value [1] is reported as “Comparable PK parameters” and the “association of PCNA and MCM7 with chromatin” value [2] is reported as “caused dissociation of PCNA and MCM7 from the actively transcribed open chromatin regions”.
